Measured values from the supplement of paper PMC6045584.
± gives the standard deviation of the averaged measurements.

compound: O=C(O)C1(C(=O)O)CCC1.[NH2-].[NH2-].[Pt+2] [CARBOPLATIN]; assay: surviving fraction relative to DMSO-only wells; higher = less growth inhibition; conditions: 500 nM; exposure time: 5 days
Summary of the method: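 Tumour cell lines in log phase were plated in 384-well plates at 250–500 cells per well, then, after 24 hours, exposed continuously for five days to inhibitors at 0.5, 1, 5, 10, 50, 100, 500 and 1000 nM. Viability came from CellTiter-Glo luminescence, and surviving fraction is that signal normalised to the median of DMSO-only wells. Plates were read after 10 minutes at room temperature, and each line, screened three times, was kept only when replicate Pearson r was >0.7 and median Z' was >0.3.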

Test System | surviving fraction
JURKAT HAEMATOPOIETIC AND LYMPHOID TISSUE | 1.01 ± 0.042
SJSA1 BONE | 1.54 ± 0.088
YAMATO SYNOVIAL | 1.248 ± 0.0092
C33A CERVIX | 1.15 ± 0.051
PCI30 HEADNECK | 1.07 ± 0.079
SCC003 HEADNECK | 1.13 ± 0.17
HUO3N1 BONE | 1.05 ± 0.016
T47D BREAST | 1.05 ± 0.028
NOS1 BONE | 1.11 ± 0.051
HELA CERVIX | 1.15 ± 0.055
NY BONE | 1.05 ± 0.012
CASKI CERVIX | 1.03 ± 0.077
BT549 BREAST | 0.967 ± 0.034
COLO320DM LARGE INTESTINE | 1.15 ± 0.094
MDAMB361 BREAST | 0.798 ± 0.046
HOSMNG BONE | 1.091 ± 0.0096
A549 LUNG | 1.07 ± 0.032
CAL51 BREAST | 1.09 ± 0.022
OSHN BONE | 1.15 ± 0.014
MCF7 BREAST | 0.984 ± 0.092
HT1080 SOFT TISSUE | 1.03 ± 0.058

Test System | surviving fraction
MDAMB157 BREAST | 0.949 ± 0.084
143B BONE | 1.13 ± 0.11
SIHA CERVIX | 1.08 ± 0.048
MDAMB134 BREAST | 1.05 ± 0.033
SG32 HEADNECK | 1.16 ± 0.2
NCIH441 LUNG | 1.02 ± 0.16
CCK81 LARGE INTESTINE | 0.784 ± 0.082
SG31 HEADNECK | 1.17 ± 0.083
OS25HAL BONE | 1.06 ± 0.04
HCC1954 BREAST | 1.07 ± 0.062
VP229 BREAST | 1.19 ± 0.096
22RV1 PROSTATE | 1.06 ± 0.068
MDAMB231 BREAST | 1.03 ± 0.026
RDES SOFT TISSUE | 1.08 ± 0.099
LM7 BONE | 1 ± 0.028
HMT3552 BREAST | 1.25 ± 0.031
SNU475 LIVER | 1.01 ± 0.04
HCC38 BREAST | 0.962 ± 0.086
HU09 BONE | 1.09 ± 0.076
ASKA SYNOVIAL | 1.1 ± 0.097

same assay, conditions: 1000 nM; exposure time: 5 days

Test System | surviving fraction
JURKAT HAEMATOPOIETIC AND LYMPHOID TISSUE | 1.04 ± 0.019
SJSA1 BONE | 1.16 ± 0.17
YAMATO SYNOVIAL | 1.29 ± 0.051
C33A CERVIX | 1.31 ± 0.024
PCI30 HEADNECK | 1.07 ± 0.039
SCC003 HEADNECK | 0.995 ± 0.051
HUO3N1 BONE | 0.98 ± 0.068
T47D BREAST | 1.03 ± 0.042
NOS1 BONE | 0.955 ± 0.073
HELA CERVIX | 1.09 ± 0.045
NY BONE | 1.03 ± 0.016
CASKI CERVIX | 1.03 ± 0.058
BT549 BREAST | 1.16 ± 0.032
COLO320DM LARGE INTESTINE | 1.14 ± 0.1
MDAMB361 BREAST | 0.785 ± 0.028
HOSMNG BONE | 1.19 ± 0.013
A549 LUNG | 1.09 ± 0.012
CAL51 BREAST | 0.977 ± 0.024
OSHN BONE | 1.113 ± 0.011
MCF7 BREAST | 0.892 ± 0.018
HT1080 SOFT TISSUE | 1.06 ± 0.062

Test System | surviving fraction
MDAMB157 BREAST | 0.943 ± 0.13
143B BONE | 1.12 ± 0.11
SIHA CERVIX | 1.14 ± 0.02
MDAMB134 BREAST | 0.8405 ± 0.0021
SG32 HEADNECK | 1.04 ± 0.17
NCIH441 LUNG | 1.04 ± 0.21
CCK81 LARGE INTESTINE | 0.725 ± 0.043
SG31 HEADNECK | 1.21 ± 0.14
OS25HAL BONE | 1.14 ± 0.029
HCC1954 BREAST | 0.836 ± 0.12
VP229 BREAST | 0.956 ± 0.14
22RV1 PROSTATE | 1.13 ± 0.17
MDAMB231 BREAST | 1.02 ± 0.041
RDES SOFT TISSUE | 1.15 ± 0.14
LM7 BONE | 1.02 ± 0.018
HMT3552 BREAST | 1.14 ± 0.088
SNU475 LIVER | 1.04 ± 0.036
HCC38 BREAST | 1 ± 0.12
HU09 BONE | 1.07 ± 0.12
ASKA SYNOVIAL | 1.09 ± 0.086
